Patent publication US6124334A, “Hetero-aromatic ring substituted phenyloxazolidinone antimicrobials” (Pharmacia & Upjohn Company, priority 1998, dated 2000)
≈ marks a conversion by molar mass, not a printed value. Where “and” joins values, the source holds several entries; their conditions need not be identical. Equal entries are not always repeated.

Legend:
S. aureus, UC ®9213 = assay: In vivo Murine Assay procedure, ED50 (survival of infected mice); set-up: species or system Staphylococcus aureus; female mice
Protocol: Antimicrobial activity was tested in vivo using the Murine Assay procedure. Groups of female mice (six mice of 18-20 grams each) were injected intraperitoneally with bacteria which were thawed just prior to use and suspended in brain heart infusion with 4% brewers yeast UC9213 (Staphylococcus aureus) or brain heart infusion (Streptococcus species). Antibiotic treatment at six dose levels per drug was administered one hour and five hours after infection by either oral intubation or subcutaneous ("subcut.") routes. Survival was observed daily for six days. ED50 values based on mortality ratios were calculated using probit analysis. The subject compounds were compared against a well-known antimicrobial (Vancomycin) as a control.

S. pneumoniae, UC ®9912 = assay: In vitro MIC by agar dilution, S. pneumoniae; assay type: cell-based; settings: Streptococcus pneumoniae, UC9912, read-out: In vitro Activities: Minimum Inhibitory Concentrations, S. pneumoniae, UC 9912
From the text: The oxazolidinone antibacterial agents of this invention have useful activity against a variety of organisms. The in vitro activity of compounds of this invention can be assessed by standard testing procedures such as the determination of minimum inhibitory concentration (MIC) by agar dilution as desribed in "Methods for Dilution Antimicrobial Susceptibility Tests for Bacteria That Grow Aerobically" (MFT) published January 1983 by the National Committee for Clinical Laboratory Standards, 771 East Lancaster Avenue, Villanova, Pa. 19084, USA. The activity of selected compounds of this invention against Staphylococcus aureus and Streptococcus pneumoniae are shown in Table 1.

For `CN[C@H](CC(C)C)C(=O)N[C@H]1C(=O)N[C@@H](CC(N)=O)C(=O)N[C@H]2C(=O)N[C@H]3C(=O)N[C@H](C(=O)N[C@H](C(=O)O)c4cc(O)cc(O)c4-c4cc3ccc4O)[C@H](O)c3ccc(c(Cl)c3)Oc3cc2cc(c3O[C@@H]2O[C@H](CO)[C@@H](O)[C@H](O)[C@H]2O[C@H]2C[C@](C)(N)[C@H](O)[C@H](C)O2)Oc2ccc(cc2Cl)[C@H]1O` [Vancomycin], the ED50 (S. aureus, UC ®9213; Staphylococcus aureus, UC9213, 144 h, read-out: Control, ED50) was 2.2 mg/kg, the “Control, ED50” value (S. aureus, UC ®9213; vancomycin control run beside the Example of the same line, mice infected i.p. with S. aureus UC 9213, treatment 1 h and 5 h after infection, oral or subcutaneous, 8640 min) was 2.4 mg/kg and 2.0 mg/kg and 1.2 mg/kg and the MIC (S. pneumoniae, UC ®9912) was 0.5 µg/mL (≈ 0.345 µM).
